# According to US6770650B2, “Cyclic amine derivatives-CCR-3 receptor antagonists” (Syntex (U.S.A.) LLC, priority 1997, dated 2004):
# pIC50: −log10 of the molar value. Structures can show the parent of a compound that is named as a salt.
# Molecular target: T1, CCR-3 receptor (Homo sapiens, UniProt P51677)
# T1 construct: expressed in transfected cells; host or cells: L1.2 cells (murine pre-B lymphoma line)
# T1 sequence (P51677 1-355): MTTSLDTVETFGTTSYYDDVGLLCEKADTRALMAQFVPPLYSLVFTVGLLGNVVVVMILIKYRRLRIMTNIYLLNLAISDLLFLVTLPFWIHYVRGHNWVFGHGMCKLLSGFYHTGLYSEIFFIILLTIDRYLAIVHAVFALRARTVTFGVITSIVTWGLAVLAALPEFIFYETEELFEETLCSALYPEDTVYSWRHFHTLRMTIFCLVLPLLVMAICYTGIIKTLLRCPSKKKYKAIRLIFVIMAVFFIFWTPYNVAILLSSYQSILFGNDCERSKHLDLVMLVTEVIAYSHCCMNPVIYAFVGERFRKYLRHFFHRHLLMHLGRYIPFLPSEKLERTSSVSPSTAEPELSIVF
# Assay: CCR-3 Receptor Binding Assay, inhibition of 125I eotaxin binding to CCR-3 L1.2 transfectant cells
# Details: concentration required to reduce 125I-eotaxin binding to the CCR-3 L1.2 transfected cells by 50%
# Protocol: The CCR-3 antagonistic activity of the compounds of the invention was determined by their ability to inhibit the binding of ^125I eotaxin to CCR-3 L1.2 transfectant cells ((see Ponath, P. D. et al., J. Exp. Med., Vol. 183, 2437-2448, (1996)).
# The assay was performed in Costar 96-well polypropylene round bottom plates. Test compounds were dissolved in DMSO and then diluted with binding buffer (50 mM HEPES, 1 mM CaCl2, 5 mM MgCl2, 0.5% bovine serum albumin (BSA), 0.02% sodium azide, pH 7.24) such that the final DMSO concentration was 2%. 25 μl of the test solution or only buffer with DMSO (control samples) was added to each well, followed by the addition of 25 μl of ^125I-eotaxin ([…]) (NEX314, New England Nuclear, Boston, Mass.) and 1.5×10^5 of the CCR-3 L1.2 transfected cells in 25 μl binding buffer. The final reaction volume was 75 μl.
# After incubating the reaction mixture for 1 h at room temperature, the reaction was terminated by filtering the reaction mixture through polyethylenimine treated Packard Unifilter GF/C filter plate (Packard, Chicago, Ill.). The filters were washed four times with ice cold wash buffer containing 10 mm HEPES and 0.5M sodium chloride (pH 7.2) and dried at 65° C. for approximately 10 min. 25 μl/well of Microscint-20™ scintillation fluid (Packard) was added and the radioactivity retained on the filters was determined by using the Packard TopCount™.
# The IC50 value (concentration of test compound required to reduce ^125I-eotaxin binding to the CCR-3 L1.2 transfected cells by 50%) for some of the compounds of the invention was: […]
row,pIC50,Compound
1,6.38,"CC(C)C(CN1CCN(Cc2ccc(Cl)c(Cl)c2)CC1)NC(=O)c1ccccn1.Cl.Cl (racemic) [compound 7, N-{1(RS)-[4-(3,4-Dichlorobenzyl)piperazin-1-ylmethyl]-2-methylpropyl}picolinamide dihydrochloride salt]"
2,5.84,"CC(C)C(CN1CCN(Cc2ccc(Cl)c(Cl)c2)CC1)NC(=O)Cc1cccs1 (racemic) [compound 25, N-{1(RS)-[4-(3,4-Dichlorobenzyl)piperazin-1-ylmethyl]-2-methylpropyl}-2-(thiophene-2-yl)acetamide]"
3,5.82,CC(C)C(CN1CCN(Cc2ccc(Cl)cc2)CC1)NS(=O)(=O)c1ccc(Cl)cc1 (racemic) [compound 118]
4,5.88,"CC(C)C(CN1CCN(Cc2ccc(Cl)c(Cl)c2)CC1)NS(=O)(=O)c1ccc(F)cc1 (stereo in doubt) [compound 117, N-{1(R)-[4-(3,4-Dichlorobenzyl)piperazin-1-ylmethyl]-2-methylpropyl}-4-flourobenzenesulfonamide]"
5,6.62,"Cc1ccc(C(=O)N[C@H](CN2CCN(Cc3ccc(Cl)c(Cl)c3)CC2)C(C)C)cc1 [compound 8, N-{1(S)-[4-(3,4-Dichlorobenzyl)piperazin-1-ylmethyl]-2-methylpropyl}-4-methylbenzamide dihydrochloride salt]"
6,6.02,"CC(C)[C@@H](CN1CCN(Cc2ccc(Cl)c(Cl)c2)CC1)NC(=O)c1ccc2ccccc2c1 [compound 19, N-{1(S)-[4-(3,4-Dichlorobenzyl)piperazin-1-ylmethyl]-2-methylpropyl}-2-naphthaleneamide]"
7,6.02,CC(C)C(CN1CCN(Cc2ccc(Cl)c(Cl)c2)CC1)NC(=O)c1ccncc1 (stereo not shown) [compound 20]
8,5.88,CCCC(CN1CCN(Cc2ccc(Cl)c(Cl)c2)CC1)NC(=O)c1ccc(C)cc1 (stereo not shown) [compound 23]
9,5.86,CC(C)C(CN1CCN(Cc2ccc(Cl)c(Cl)c2)CC1)NC(=O)c1ccc2ccccc2n1 (stereo not shown) [compound 24]
10,5.75,CC(C)(C)[C@@H](CN1CCC(Cc2ccc(Cl)c(Cl)c2)CC1)NC(=O)c1ccc(Cl)cc1 [compound 61]
11,5.30,"Cc1ccc(C(=O)N2CCC[C@@H]2CN2CCN(Cc3ccc(Cl)c(Cl)c3)CC2)cc1 [compound 78, {1-(4-Methylbenzoyl)-2(R)-[4-(3,4-dichlorobenzyl)piperazin-1-ylmethyl]}pyrrolidine Dihydrochloride Salt]"
12,5.94,CCOc1ccccc1NC(=O)NC(CN1CCN(Cc2ccc(Cl)c(Cl)c2)CC1)C(C)C (stereo not shown) [compound 86]
13,5.83,CC(C)C(CN1CCN(Cc2ccc(Cl)c(Cl)c2)CC1)NC(=O)Nc1cccc(Br)c1 (stereo not shown) [compound 88]
14,5.77,CC(C)C(CN1CCN(Cc2ccc(Cl)cc2)CC1)NC(=O)Nc1ccccc1 (stereo not shown) [compound 89]
15,5.72,CC(=O)c1cccc(NC(=O)NC(CN2CCN(Cc3ccc(Cl)c(Cl)c3)CC2)C(C)C)c1 (stereo not shown) [compound 91]
16,5.63,COc1cccc(NC(=O)N[C@H](CN2CCC(Cc3ccc(Cl)c(Cl)c3)CC2)C(C)(C)C)c1 [compound 99]
17,5.61,Cc1ccc(NC(=O)N[C@H](CN2CCC(Cc3ccc(Cl)c(Cl)c3)CC2)C(C)(C)C)cc1 [compound 100]
18,5.55,CC(C)C(CN1CCN(Cc2ccc(Cl)cc2)CC1)NC(=S)Nc1cccc2ccccc12 (stereo not shown) [compound 109]
19,5.52,COc1ccccc1NC(=S)NC(CN1CCN(Cc2ccc(Cl)c(Cl)c2)CC1)C(C)C (stereo not shown) [compound 110]
20,5.45,CC(C)C(CN1CCN(Cc2ccc(Cl)cc2)CC1)NS(=O)(=O)c1ccc(C(F)(F)F)cc1 (stereo not shown) [compound 121]

row,Compound,pIC50
1,1-{1(RS)-[4-(4-Chlorobenzyl)piperazin-1-yl]-2-methylpropyl}-3-(3-methylphenyl)-2-thiourea [compound 107],5.94

# Tested on: not given
# Assay: not given
# Details: not given
row,melting point [°C],Compound
1,238 to 242,Cc1ccc(C(=O)N[C@H](CN2CCN(Cc3ccc(Cl)c(Cl)c3)CC2)C(C)(C)C)cc1.Cl.Cl
2,222.5 to 223,COc1ccc(C(=O)N[C@H](CN2CCN(Cc3ccc(Cl)c(Cl)c3)CC2)C(C)C)cc1.Cl.Cl
3,229 to 229.6,"Cc1ccc(C(=O)N[C@H](CN2CCN(Cc3ccc(Cl)c(Cl)c3)CC2)C(C)C)cc1 (as salt: HCl) [compound 8, N-{1(S)-[4-(3,4-Dichlorobenzyl)piperazin-1-ylmethyl]-2-methylpropyl}-4-methylbenzamide dihydrochloride salt]"
4,150 to 153,CC(C)C(CN1CCN(Cc2ccc(Cl)c(Cl)c2)CC1)NC(=O)c1ccncc1 (stereo not shown) (as salt: HCl) [compound 20]
5,199.5 to 203.5,CCCC(CN1CCN(Cc2ccc(Cl)c(Cl)c2)CC1)NC(=O)c1ccc(C)cc1 (stereo not shown) (as salt: HCl) [compound 23]
6,87 to 90,"Cc1ccc(C(=O)N[C@H](CN2CCC(Cc3ccc(Cl)c(Cl)c3)CC2)C(C)C)cc1 (as salt: HCl) [compound 57, N-{1-(S)-[4-(3,4-Dichlorobenzyl)piperidin-1-ylmethyl]-2-methylpropyl}-4-methylbenzamide]"
7,45 to 47.5,"Cc1ccc(C(=O)N[C@H](CN2CCC(Cc3ccc(Cl)c(Cl)c3)CC2)C(C)C)s1 (as salt: HCl) [compound 71, N-{1-(R)-[4-(Dichlorobenzyl)piperidin-1-ylmethyl]-2-methylpropyl}-5-methylthiophene-2-carboxamide Hydrochloride Salt]"
8,249.6 to 250.1,"Cc1ccc(C(=O)N2CCC[C@@H]2CN2CCN(Cc3ccc(Cl)c(Cl)c3)CC2)cc1 (as salt: HCl) [compound 78, {1-(4-Methylbenzoyl)-2(R)-[4-(3,4-dichlorobenzyl)piperazin-1-ylmethyl]}pyrrolidine Dihydrochloride Salt]"
9,97.5 to 99.5,"COc1cccc(NC(=O)N[C@H](CN2CCN(Cc3ccc(Cl)c(Cl)c3)CC2)C(C)C)c1 (as salt: HCl) [compound 98, 1-{1(S)-[4-(3,4-Dichlorobenzyl)piperazin-1-ylmethyl]-2-methylpropyl}-3-(3-methoxyphenyl)urea]"
10,109.5 to 111,Cc1ccc(NC(=O)N[C@H](CN2CCC(Cc3ccc(Cl)c(Cl)c3)CC2)C(C)(C)C)cc1 (as salt: HCl) [compound 100]
11,233.9 to 235.5,Cc1ccc(C(=O)NC(CC2CCN(Cc3ccc(Cl)c(Cl)c3)CC2)C(C)C)cc1 (racemic) (as salt: hydrochloride) [compound 133]
12,226.2 to 229.9,"CC(C)C(CN1CCN(Cc2ccc(Cl)c(Cl)c2)CC1)NC(=O)c1ccccn1.Cl.Cl (racemic) [compound 7, N-{1(RS)-[4-(3,4-Dichlorobenzyl)piperazin-1-ylmethyl]-2-methylpropyl}picolinamide dihydrochloride salt]"
13,161.4 to 161.8,"COc1cccc(NC(=O)NC(C(C)C)C2CCN(Cc3ccc(Cl)c(Cl)c3)CC2)c1 (racemic) [compound 132, 1-{1(RS)-[1-(3,4-Dichlorobenzyl)piperidin-4-yl]-2-methylpropyl}-3-(3-methoxyphenyl)urea]"
14,149 to 155,"O=C(N[C@@H](CN1CCN(Cc2ccc(Cl)c(Cl)c2)CC1)C1CCCCC1)c1ccc(Cl)cc1 [compound 35, N-{1(R)-cyclohexyl-2-[4-(3,4-dichlorobenzyl)piperazin-1-yl]ethyl}-4-chloro-benzamide]"
15,63 to 68,CC(C)(C)[C@@H](CN1CCC(Cc2ccc(Cl)c(Cl)c2)CC1)NC(=O)c1ccc(Cl)cc1 [compound 61]
16,75.1 to 80.3,COc1cccc(NC(=O)N[C@H](CN2CCC(Cc3ccc(Cl)c(Cl)c3)CC2)C(C)(C)C)c1 [compound 99]
